Experimental data published in US20210077479A1, “FORMULATIONS OF PIMAVANSERIN” (ACADIA Pharmaceuticals Inc., priority 2017, published 2021).

Assays:
[1] = system: DOI ((±)-2,5-dimethoxy-4-iodoamphetamine, a serotonin agonist) induced head twitches; details: rat, oral doses of 3 and 10 mg/kg; cited from earlier work
[2] = Bulk density according to USP <616>, method 1; type: physicochemical
From the text: (§1) Can's Index compares the difference between the bulk density and tapped density of a substance to determine its compressibility. The bulk density and the Carr's Index may be determined in accordance with USP<616> (method for performing Bulk and Tapped Densities, method 1) and USP<1174> (definition of powder flow) respectively.
The bulk density of the blended composition is >0.4 g/ml, such as 0.4-0.6 g/ml, such as about 0.5 g/ml determined according to USP <616>, method 1. In some embodiments the bulk density of the composition is >0.4 g/ml, such as about 0.5 g/ml, such as 0.51 g/ml, such as 0.508 g/ml.
The bulk density of pimavanserin granulation is >0.4 g/ml, such as 0.4-0.6 g/ml, such as about 0.5 g/ml, determined according to USP <616>, method 1. In some embodiments the bulk density of the pimavanserin granulation is >0.4 g/ml, such as about 0.5 g/ml, such as 0.51 g/ml, such as 0.508 g/ml.

[3] = Carr's Index (Carr's Compressibility Index), USP <616>/<1174>; type: physicochemical
Experimental: as §1
Table 1 visualizes that filling of a capsule, in particular a capsule of size 3 or 4 (capsule volumes of 0.30 and 0.21 ml respectively, approximately […] and 85 mg respectively at a bulk density of 0.5 g/ml). As evident from Table 1, native pimavanserin (API) would be challenging for a size 3 capsule and not possible for a capsule of size 4 without improving the bulk density (as comparison 85 mg of pimavanserin granulation would require about 0.17 ml compared to 0.29 nil for the native API) and flowability (Carr index is frequently used in pharmaceutical manufacturing as an indication of the flowability of a powder, e.g. 2016 U.S. Pharmacopoeia-National Formulary [USP 35 NF 30]).

[4] = Laser light scattering particle size analysis (Malvern Mastersizer 2000); type: physicochemical; details: FIG. 4 / FIG. 5
From the text: The small quantity of water, its application using appropriate water atomization and/or water application rate are important reasons for the improved properties of pimavanserin. […] The actual amount of water to be sprayed at the granulation of pimavanserin may vary from batch to batch (depending on surrounding factors such as humidity, temperature, exact properties of the API batch, etc) but is still consider to be a small amount, e.g. 3-10% w/w based on the dry ingredients. The amount of water and the granulation process disclosed herein is controlled by controlling the impeller energy to achieve the targeted impeller speed. The appropriate impeller speed ensures sufficient mixing and controls the growth of granules. The specific small amount of water needed for each batch is controlled by the power consumption (amperage) of the granulator, i.e., if the amperage is […], additional amounts of water could be sprayed to the granulate in order to obtain pimavanserin having the properties desired in order to pharmaceutically manufacture capsules comprising 5-34 mg pimavanserin. […] The properties are achieved via a manufacturing process that includes granulation, using a suitable granulator, e.g. a high shear granulator, simultaneously spraying the adequate amount of water while mixing, followed by screening, and blending appropriate quantities of excipients. […]

| Bulk density according to USP <616> [2] | volume required for 85 mg ([2]; 85 mg of powder, from bulk density) [mL] | Carr's Index [3] | particle size distribution D90 [4] | Compound | activity against DOI induced head twitches [1] |
| --- | --- | --- | --- | --- | --- |
|  |  |  |  | CC(C)COc1ccc(CNC(=O)N(Cc2ccc(F)cc2)C2CCN(C)CC2)cc1 [Pimavanserin, N-(1-methylpiperidin-4-yl)-N-(4-fluorophenylmethyl)-N′-(4-(2-methylpropyloxy)phenylmethyl)carbamide] | effective |
| 0.294 (n = 2) g/ml | 0.29 | 36 (n = 2) | about 30 μm | pimavanserin tartrate [Native API] |  |
